The source of these data is BindingDB's records for patent WO2022104348 (Janssen Pharmaceutica, 2022).

The test addresses Mitogen-activated protein kinase kinase kinase 14 (Homo sapiens, UniProt Q99558). As to the kind of experiment: Inhibition of auto-phosphorylation of recombinant human NF-kappaB-inducing kinase (NIK/MAP3K14) activity. On the procedure: NIK/MAP3K14 auto-phosphorylation activity was measured using the AlphaScreen (ascreen) format (Perkin Elmer). All compound6 tested were dissolved in dimethyl sulfoxide (DMSO) and further dilutions were made in assay buffer. The final DMSO concentration was 0.7% (v/v) in assays. The assay buffer was 50 mM Tris pH 7.5 containing 1 mM EGTA (ethylene glycol tetraacetic acid), 1 mM DTT (dithiothreitol), 0.1 mM NasVCO4, 5 mM MgCE, and 0.01 % Tween 20. The assays were carried out in 384 well Proxiplates (Perkin Elmer). The incubations consisted of the compound, […] Adenosine-5'-triphosphate (ATP), and 1 nM NIK/MAP3K14. Incubations were initiated by the addition of GST-tagged NIK/MAP3K14 enzyme, carried out for 2 h at 25 °C and terminated by addition of stop buffer containing anti-phospho-IKK Ser176/180 antibody. Protein A Acceptor and Glutathione-Donor bead6 were added before reading using an EnVision Multilabel Plate Reader (Perkin Elmer). The signal obtained in the wells was normalized using high (full enzyme activity, 0.7% DMSO) and low controls (no enzyme activity, 0.7% DMSO, no ATP). IC50 s were determined by fitting a sigmoidal curve to % inhibition of control versus Log compound concentration.

Chain of Mitogen-activated protein kinase kinase kinase 14 (Q99558 whole entry): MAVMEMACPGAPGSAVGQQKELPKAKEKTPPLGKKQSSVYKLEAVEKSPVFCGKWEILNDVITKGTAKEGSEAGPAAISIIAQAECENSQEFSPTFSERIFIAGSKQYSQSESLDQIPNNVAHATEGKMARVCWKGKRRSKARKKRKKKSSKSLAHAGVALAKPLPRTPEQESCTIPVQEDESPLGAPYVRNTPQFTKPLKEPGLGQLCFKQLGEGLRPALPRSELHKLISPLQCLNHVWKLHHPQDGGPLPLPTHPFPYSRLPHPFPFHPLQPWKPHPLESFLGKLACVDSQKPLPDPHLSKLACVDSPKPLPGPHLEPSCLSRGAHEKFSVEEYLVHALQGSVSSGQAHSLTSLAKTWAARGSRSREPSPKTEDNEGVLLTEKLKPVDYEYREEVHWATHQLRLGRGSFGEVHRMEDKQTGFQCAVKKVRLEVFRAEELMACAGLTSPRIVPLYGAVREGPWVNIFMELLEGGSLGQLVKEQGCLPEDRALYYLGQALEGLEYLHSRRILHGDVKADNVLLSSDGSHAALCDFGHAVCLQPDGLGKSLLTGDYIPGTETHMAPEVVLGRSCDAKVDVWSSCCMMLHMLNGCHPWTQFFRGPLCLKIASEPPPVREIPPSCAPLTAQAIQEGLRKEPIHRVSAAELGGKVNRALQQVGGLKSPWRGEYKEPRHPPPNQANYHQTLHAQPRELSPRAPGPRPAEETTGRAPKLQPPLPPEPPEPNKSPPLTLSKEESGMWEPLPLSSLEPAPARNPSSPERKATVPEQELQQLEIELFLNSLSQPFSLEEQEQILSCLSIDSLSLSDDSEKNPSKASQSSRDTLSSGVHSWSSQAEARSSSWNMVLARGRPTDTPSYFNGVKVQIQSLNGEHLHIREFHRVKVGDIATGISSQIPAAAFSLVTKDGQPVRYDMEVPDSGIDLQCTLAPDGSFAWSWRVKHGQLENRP

On to `O[C@H]1C[C@](O)(c2cccc(-c3csc(-c4c[nH]c5ncccc45)n3)c2)c2ncccc21` [WO2022104348, Example 102], for which the concentration for half-maximal inhibition (IC50) is > 500 nM. For the compound `O[C@H]1C[C@@](O)(c2cccc(-c3csc(-c4c[nH]c5ncccc45)n3)c2)c2ncccc21` [WO2022104348, Example 103], the IC50 is > 500 nM.

As for `O[C@@H]1C[C@](O)(c2cccc(-c3csc(-c4c[nH]c5ncccc45)n3)c2)c2ncccc21` [WO2022104348, Example 104], the IC50 is > 500 nM. In the case of `C[C@]1(O)C[C@](O)(c2cccc(-c3csc(-c4c[nH]c5ncccc45)n3)c2)c2ncccc21` [WO2022104348, Example 105], the 50% inhibitory concentration (IC50) was > 500 nM. For `C[C@@]1(O)C[C@@](O)(c2cccc(-c3csc(-c4c[nH]c5ncccc45)n3)c2)c2ncccc21` [WO2022104348, Example 106], the concentration for half-maximal inhibition (IC50) was > 500 nM. As for `C[C@@]1(O)C[C@](O)(c2cccc(-c3csc(-c4c[nH]c5ncccc45)n3)c2)c2ncccc21` [WO2022104348, Example 107], the 50% inhibitory concentration (IC50) was > 500 nM. As to `CN1CC[C@@](O)(c2cccc(-n3ncc(-c4c[nH]c5ncccc45)n3)c2)C1=O` [WO2022104348, Example 109], the IC50 was < 100 nM.

On to `CN1CC[C@@](O)(c2cccc(-c3csc(-n4ccc5nc(N)ccc54)n3)c2)C1=O` [WO2022104348, Example 112], for which the IC50 was > 500 nM. On to `CN1CC[C@@](O)(c2cccc(-c3ccc(-c4c[nH]c5ncccc45)o3)c2)C1=O` [WO2022104348, Example 114], for which the IC50 is < 100 nM. For the compound `CN1CC[C@@](O)(c2cccc(-c3cc(-c4c[nH]c5ncccc45)co3)c2)C1=O` [WO2022104348, Example 115], the IC50 is > 500 nM.

As for `CN1CC[C@@](O)(c2cccc(-c3coc(-c4c[nH]c5ncccc45)n3)c2)C1=O` [WO2022104348, Example 116], the IC50 was < 100 nM. Turning to `Cc1c(-c2c[nH]c3ncccc23)n[nH]c1-c1cccc([C@]2(O)CCN(C)C2=O)c1` [WO2022104348, Example 119], the IC50 is > 500 nM. On to `CN1CC[C@@](O)(c2cccc(-c3cnc(-c4c[nH]c5ncccc45)n3C)c2)C1=O` [WO2022104348, Example 120], for which the IC50 is > 500 nM. Regarding `CN1CC[C@@](O)(c2cccc(-n3cnc(-c4c[nH]c5ncccc45)n3)c2)C1=O` [WO2022104348, Example 121], the IC50 was < 100 nM. Regarding `CN1CC[C@@](O)(c2cccc(-n3ccc(-c4c[nH]c5ncccc45)n3)c2)C1=O` [WO2022104348, Example 122], the IC50 was < 100 nM. Next, `CN1CC[C@@](O)(c2cccc(-n3cc(-c4c[nH]c5ncccc45)nn3)c2)C1=O` [WO2022104348, Example 123]: > 500 nM; `CN1CC[C@@](O)(c2cccc(-n3cnc(-c4c[nH]c5ncccc45)c3)c2)C1=O` [WO2022104348, Example 124]: > 500 nM. As for `Cc1noc2c1CC[C@@]2(O)c1cccc(-c2csc(-c3c[nH]c4ncccc34)n2)c1` [WO2022104348, Example 126], the IC50 is < 100 nM. Consider `CN1CC[C@@](O)(c2cccc(-c3nc(-c4ccnc5[nH]ccc45)cs3)c2)C1=O` [WO2022104348, Example 127], for which the 50% inhibitory concentration (IC50) was < 100 nM. Turning to `CN1CC[C@@](O)(c2cccc(-c3nc(-c4cc(N)nc5[nH]ccc45)cs3)c2)C1=O` [WO2022104348, Example 129], the IC50 was > 500 nM. For the compound `CN1CC[C@@](O)(c2cccc(-c3nc(-c4c(Cl)cnc5[nH]ccc45)cs3)c2)C1=O` [WO2022104348, Example 130], the IC50 is > 500 nM. `CN1CC[C@@](O)(c2cccc(-c3nc(-c4cccc5[nH]ncc45)cs3)c2)C1=O` [WO2022104348, Example 131]: the IC50 was > 500 nM.

Broadly, the IC50 is the point on the concentration scale where inhibition reaches its midpoint.
